Values of other authors as cited in paper PMC9329312, “Decoding kinase-adverse event associations for small molecule kinase inhibitors” (Nature Communications, 2022).
Read-outs that look alike come from different tables or passages of the source.

Details: ref FAERS

CCOc1cc2ncc(C#N)c(Nc3ccc(OCc4ccccn4)c(Cl)c3)c2cc1NC(=O)/C=C/CN(C)C [neratinib]
Pyrexia, % of Cases: 1.4% | Quality of life decreased, % of Cases: 0.075% | Radiation injury, % of Cases: 0.075% | Rash erythematous, % of Cases: 0.3% | Rash macular, % of Cases: 0.075% | Rash papular, % of Cases: 0.075% | Rash pruritic, % of Cases: 0.3% | Rash pustular, % of Cases: 0.225% | Rash vesicular, % of Cases: 0.075% | Rash, % of Cases: 5.0% | Raynaud's phenomenon, % of Cases: 0.075% | Recall phenomenon, % of Cases: 0.075% | Rectal haemorrhage, % of Cases: 0.5% | Recurrent cancer, % of Cases: 0.075% | Red blood cell count decreased, % of Cases: 0.225% | Red blood cell sedimentation rate increased, % of Cases: 0.075% | Reflux laryngitis, % of Cases: 0.15% | Refraction disorder, % of Cases: 0.075% | Renal disorder, % of Cases: 0.45% | Renal failure, % of Cases: 0.6% | Renal function test abnormal, % of Cases: 0.15% | Renal impairment, % of Cases: 0.8% | Renal mass, % of Cases: 0.075% | Respiratory arrest, % of Cases: 0.075% | Respiratory failure, % of Cases: 0.15% | Restless legs syndrome, % of Cases: 0.075% | Retching, % of Cases: 0.3% | Retinal artery occlusion, % of Cases: 0.075% | Retinal tear, % of Cases: 0.075% | Rhinorrhoea, % of Cases: 0.75% | Road traffic accident, % of Cases: 0.075% | Rubber sensitivity, % of Cases: 0.075% | Saliva altered, % of Cases: 0.075% | Salivary gland cancer, % of Cases: 0.15% | Salpingectomy, % of Cases: 0.075% | Salpingo-oophorectomy bilateral, % of Cases: 0.075% | Scab, % of Cases: 0.075% | Seasonal allergy, % of Cases: 0.075% | Seizure, % of Cases: 0.225% | Sensation of foreign body, % of Cases: 0.15% | Seroma, % of Cases: 0.075% | Sinus disorder, % of Cases: 0.075% | Sinus headache, % of Cases: 0.075% | Sinus tachycardia, % of Cases: 0.075% | Sinusitis, % of Cases: 0.15% | Sjogren's syndrome, % of Cases: 0.075% | Skin atrophy, % of Cases: 0.075% | Skin burning sensation, % of Cases: 0.075% | Skin discolouration, % of Cases: 0.225% | Skin disorder, % of Cases: 0.075% | Skin erosion, % of Cases: 0.075% | Skin exfoliation, % of Cases: 0.8% | Skin fissures, % of Cases: 0.9% | Skin haemorrhage, % of Cases: 0.075% | Skin irritation, % of Cases: 0.075% | Skin odour abnormal, % of Cases: 0.075% | Skin reaction, % of Cases: 0.075% | Skin ulcer, % of Cases: 0.075% | Sleep disorder, % of Cases: 0.15% | Slow speech, % of Cases: 0.075% | Sluggishness, % of Cases: 0.075% | Small intestine adenocarcinoma, % of Cases: 0.075% | Sneezing, % of Cases: 0.225% | Snoring, % of Cases: 0.075% | Somnolence, % of Cases: 1.5% | Spinal pain, % of Cases: 0.075% | Sputum retention, % of Cases: 0.075% | Staphylococcal infection, % of Cases: 0.075% | Stomatitis, % of Cases: 2.0% | Stress fracture, % of Cases: 0.075% | Stress, % of Cases: 0.3% | Subclavian vein thrombosis, % of Cases: 0.075% | Sunburn, % of Cases: 0.075% | Surgery, % of Cases: 0.6% | Swelling face, % of Cases: 0.225% | Swelling, % of Cases: 0.15% | Swollen tongue, % of Cases: 0.15% | Syncope, % of Cases: 0.15% | Tachycardia, % of Cases: 0.225% | Taste disorder, % of Cases: 1.2% | Temporomandibular joint syndrome, % of Cases: 0.075% | Tenderness, % of Cases: 0.075% | Tension headache, % of Cases: 0.075% | Therapeutic product ineffective for unapproved indication, % of Cases: 0.075% | Therapy cessation, % of Cases: 0.375% | Therapy change, % of Cases: 0.225% | Therapy interrupted, % of Cases: 0.15% | Thirst, % of Cases: 0.375% | Throat irritation, % of Cases: 0.075% | Throat tightness, % of Cases: 0.075% | Thrombocytopenia, % of Cases: 0.075% | Thrombosis, % of Cases: 0.225% | Thyroid cancer, % of Cases: 0.075% | Thyroid mass, % of Cases: 0.075% | Tongue discolouration, % of Cases: 0.075% | Tongue discomfort, % of Cases: 0.075% | Tongue erythema, % of Cases: 0.15% | Tooth extraction, % of Cases: 0.075% | Tooth fracture, % of Cases: 0.075% | Tooth injury, % of Cases: 0.075% | Toothache, % of Cases: 0.15% | Toxicity to various agents, % of Cases: 0.075% | Tracheal disorder, % of Cases: 0.075% | Transaminases increased, % of Cases: 0.075% | Transient ischaemic attack, % of Cases: 0.075% | Transitional cell carcinoma metastatic, % of Cases: 0.075% | Treatment noncompliance, % of Cases: 0.075% | Tremor, % of Cases: 0.375% | Trichorrhexis, % of Cases: 0.075% | Tumour flare, % of Cases: 0.075% | Tumour marker increased, % of Cases: 0.075% | Tumour pain, % of Cases: 0.075% | Tumour ulceration, % of Cases: 0.075% | Underdose, % of Cases: 2.6% | Upper limb fracture, % of Cases: 0.075% | Upper respiratory tract infection, % of Cases: 0.375% | Upper-airway cough syndrome, % of Cases: 0.075% | Urinary retention, % of Cases: 0.075% | Urinary tract discomfort, % of Cases: 0.075% | Urinary tract infection, % of Cases: 2.1% | Urine analysis abnormal, % of Cases: 0.075% | Urine odour abnormal, % of Cases: 0.075% | Urticaria, % of Cases: 0.375% | Uterine cancer, % of Cases: 0.075% | Uterine leiomyoma, % of Cases: 0.075% | Vaginal discharge, % of Cases: 0.075% | Vaginal haemorrhage, % of Cases: 0.225% | Venous pressure jugular increased, % of Cases: 0.075% | Vertigo positional, % of Cases: 0.075% | Vertigo, % of Cases: 0.075% | Viral infection, % of Cases: 0.15% | Vision blurred, % of Cases: 0.375% | Visual impairment, % of Cases: 0.225% | Vitamin D decreased, % of Cases: 0.075% | Vitiligo, % of Cases: 0.075% | Vitreous floaters, % of Cases: 0.075% | Volume blood decreased, % of Cases: 0.075% | Vomiting projectile, % of Cases: 0.075% | Vomiting, % of Cases: 13.8% | Vulvovaginal burning sensation, % of Cases: 0.075% | Vulvovaginal dryness, % of Cases: 0.075% | Vulvovaginal pain, % of Cases: 0.075% | Vulvovaginal pruritus, % of Cases: 0.15% | Weight decreased, % of Cases: 4.9% | Weight fluctuation, % of Cases: 0.075% | Weight increased, % of Cases: 0.3% | White blood cell count decreased, % of Cases: 0.7% | White blood cell count increased, % of Cases: 0.15% | Wound haemorrhage, % of Cases: 0.075% | Wound, % of Cases: 0.075% | Wrist fracture, % of Cases: 0.075% | Wrong technique in product usage process, % of Cases: 0.075% | Xeroderma, % of Cases: 0.075% | Abdominal discomfort, % of Cases (listed as Neratinib): 4.80% | Abdominal pain upper, % of Cases (listed as Neratinib): 6.00% | Abdominal pain, % of Cases (listed as Neratinib): 6.20% | Constipation, % of Cases (listed as Neratinib): 15.50% | Death, % of Cases (listed as Neratinib): 9.60% | Decreased appetite, % of Cases (listed as Neratinib): 11.90% | Dehydration, % of Cases (listed as Neratinib): 6.60% | Diarrhoea, % of Cases (listed as Neratinib): 61.80% | Dizziness, % of Cases (listed as Neratinib): 4.60% | Dyspepsia, % of Cases (listed as Neratinib): 4.40% | Fatigue, % of Cases (listed as Neratinib): 25.20% | Headache, % of Cases (listed as Neratinib): 5.40% | Hospitalisation, % of Cases (listed as Neratinib): 5.30% | Muscle spasms, % of Cases (listed as Neratinib): 4.20% | Nausea, % of Cases (listed as Neratinib): 29.70% | Off label use, % of Cases (listed as Neratinib): 11.60% | Product dose omission issue, % of Cases (listed as Neratinib): 7.80% | Rash, % of Cases (listed as Neratinib): 5.00% | Vomiting, % of Cases (listed as Neratinib): 13.80% | Weight decreased, % of Cases (listed as Neratinib): 4.90%
